According to patent US4264765A, “Salts of erythromycin A esters” (priority 1980, dated 1981):

These compounds were tested on Staph, Aureus (Smith) (assay: standard test using mice infected with Staph, Aureus (Smith), subcutaneous treatment). Settings: Staphylococcus aureus, sc, pH 7.4, read-out: CD 50, mice, subcutaneous, isotonic or pH 7.4 buffered aqueous solution; LD 50 column prints 100.
Format: in vivo
Method: The above compounds were tested per their antibacterial uses in a standard test, using mice infected with Staph, Aureus (Smith). […] The compounds of the above examples were administered subcutaneously as isotonic solutions or aqueous solutions buffered to a pH of 7.4.

Row | Structure (SMILES) | ED50 [mg/kg]
1 | CCOC(=O)CCC(=O)O[C@H]1[C@H](O[C@@H]2[C@@H](C)[C@H](O[C@H]3C[C@@](C)(OC)[C@@H](O)[C@H](C)O3)[C@@H](C)C(=O)O[C@H](CC)[C@@](C)(O)[C@H](O)[C@@H](C)C(=O)[C@H](C)C[C@@]2(C)O)O[C@H](C)C[C@@H]1[N+](C)(C)COC(=O)c1ccccc1 [Example 5, 2'-ethylsuccinyl-N-benzoyloxymethyl erythromycin A iodide] | 52
2 | CCOC(=O)CCC(=O)O[C@H]1[C@H](O[C@@H]2[C@@H](C)[C@H](O[C@H]3C[C@@](C)(OC)[C@@H](O)[C@H](C)O3)[C@@H](C)C(=O)O[C@H](CC)[C@@](C)(O)[C@H](O)[C@@H](C)C(=O)[C@H](C)C[C@@]2(C)O)O[C@H](C)C[C@@H]1[N+](C)(C)COC(=O)CC [Example 7, 2'-ethylsuccinyl-N-propionyloxymethyl erythromycin A iodide] | 24

Same assay, conditions: Staphylococcus aureus, sc, pH 7.4, read-out: CD 50, mice, subcutaneous, isotonic or pH 7.4 buffered aqueous solution; inoculation (a): LD50 of 10-100

Row | Structure (SMILES) | ED50 [mg/kg]
3 | CCC(=O)O[C@H]1[C@H](O[C@@H]2[C@@H](C)[C@H](O[C@H]3C[C@@](C)(OC)[C@@H](O)[C@H](C)O3)[C@@H](C)C(=O)O[C@H](CC)[C@@](C)(O)[C@H](O)[C@@H](C)C(=O)[C@H](C)C[C@@]2(C)O)O[C@H](C)C[C@@H]1[N+](C)(C)COC(=O)C(C)(C)C [Example 1, 2'-propionyl-N-pivalyloxymethylerythromycin A iodide] | 88
4 | CCOC(=O)CCC(=O)O[C@H]1[C@H](O[C@@H]2[C@@H](C)[C@H](O[C@H]3C[C@@](C)(OC)[C@@H](O)[C@H](C)O3)[C@@H](C)C(=O)O[C@H](CC)[C@@](C)(O)[C@H](O)[C@@H](C)C(=O)[C@H](C)C[C@@]2(C)O)O[C@H](C)C[C@@H]1[N+](C)(C)COC(=O)C(C)(C)C [Example 3, 2'-ethylsuccinyl-N-pivalyloxymethyl erythromycin A chloride] | 58
5 | CC[C@H]1OC(=O)[C@H](C)[C@@H](O[C@H]2C[C@@](C)(OC)[C@@H](O)[C@H](C)O2)[C@H](C)[C@@H](O[C@@H]2O[C@H](C)C[C@H]([N+](C)(C)COC(=O)C(C)(C)C)[C@H]2OC(=O)CCC(=O)O)[C@](C)(O)C[C@@H](C)C(=O)[C@H](C)[C@@H](O)[C@]1(C)O [Example 10, 2'-succinyl-N-pivalyloxymethyl erythromycin A chloride] | 37
6 | CCOC(=O)CCC(=O)O[C@H]1[C@H](O[C@@H]2[C@@H](C)[C@H](O[C@H]3C[C@@](C)(OC)[C@@H](O)[C@H](C)O3)[C@@H](C)C(=O)O[C@H](CC)[C@@](C)(O)[C@H](O)[C@@H](C)C(=O)[C@H](C)C[C@@]2(C)O)O[C@H](C)C[C@@H]1[N+](C)(C)COC(=O)CCCCCC(=O)O [Example 14, 2'-ethylsuccinyl-N-pimelyloxymethyl erythromycin chloride] | 47

Same assay, conditions: Staphylococcus aureus, sc, pH 7.4, read-out: CD 50, mice, subcutaneous, isotonic or pH 7.4 buffered aqueous solution; inoculation (b): LD50 of 100-1000

Row | Structure (SMILES) | ED50 [mg/kg]
7 | CCOC(=O)CCC(=O)O[C@H]1[C@H](O[C@@H]2[C@@H](C)[C@H](O[C@H]3C[C@@](C)(OC)[C@@H](O)[C@H](C)O3)[C@@H](C)C(=O)O[C@H](CC)[C@@](C)(O)[C@H](O)[C@@H](C)C(=O)[C@H](C)C[C@@]2(C)O)O[C@H](C)C[C@@H]1[N+](C)(C)COC(=O)C(C)(C)C [Example 2, 2'-ethylsuccinyl-N-pivalyloxymethylerythromycin A iodide] | 143
8 | CCC(=O)O[C@H]1[C@H](O[C@@H]2[C@@H](C)[C@H](O[C@H]3C[C@@](C)(OC)[C@@H](O)[C@H](C)O3)[C@@H](C)C(=O)O[C@H](CC)[C@@](C)(O)[C@H](O)[C@@H](C)C(=O)[C@H](C)C[C@@]2(C)O)O[C@H](C)C[C@@H]1[N+](C)(C)COC(=O)c1ccccc1 [Example 4, 2'-propionyl-N-benzoyloxymethyl erythromycin A chloride] | 40
9 | CC[C@H]1OC(=O)[C@H](C)[C@@H](O[C@H]2C[C@@](C)(OC)[C@@H](O)[C@H](C)O2)[C@H](C)[C@@H](O[C@@H]2O[C@H](C)C[C@H]([N+](C)(C)COC(=O)C(C)(C)C)[C@H]2OC(=O)CCCC(=O)O)[C@](C)(O)C[C@@H](C)C(=O)[C@H](C)[C@@H](O)[C@]1(C)O [Example 12, 2'-glutaryl-N-pivalyloxymethyl erythromycin A chloride] | 73
